The test system of assay [1] is SCC13 cells. The assay can be described thus: MTT assay for cell viability, SCC13 cells. It is filed as cell-based, human. The following applies: for IC50 / IC90: Homo sapiens, SCC-13, MTT, 24 h treatment, mean ± SD, n = 4; for IC50: read-out: SSC13 Cells IC50 ± SD; for IC90: read-out: SSC13 Cells IC90 ± SD. How it is done:
(§1) We first investigated the dose-dependent effects of all five compounds on the cell viability of human skin cancer cell line, SCC13 as well as an immortalized human skin keratinocyte cell line, HaCaT through MTT assay. […] IC50 and IC90 values for these compounds against these two cell lines were calculated (Table 1). There were statistically significant differences between these two values with p < 0.05.
(§2) All cell lines were seeded on a 96-well cell culture plate at 2 × 10^5 cells per well. After 24 h, the cells were treated with increasing doses of the compounds (0, 0.0625 μM, 0.125 μM, 0.25 μM, 0.5 μM, 1.0 μM). After incubation for 24 h, the medium was removed and 100 μL of MTT solution (500 µg/mL) in PBS was added and kept for 4 h at 37 °C. The formazan crystals thus formed were dissolved in DMSO and the optical density (OD) was measured at 570 nm using a microplate reader (BioTek Synergy H1 Plate Reader, Winooski, VT, USA).
For orientation: Tetrazolium assays rely on reduction of a dye to a coloured formazan, in cell work by metabolically active cells.

A further assay has as its system HaCaT cells. As to the kind of experiment: MTT assay for cell viability, HaCaT cells. The following applies: 24 h treatment, normal human keratinocytes, mean ± SD, n = 4. It is filed as cell-based. How it is done: as §1, §2
Assay [2] deals with SCC13 cells. As to the kind of experiment: Wound healing (cell migration) assay. The settings on record: 24 h, control group 93.37 ± 3.35. It is filed as cell-based, human. The procedure: Figure 4 Effect of C278 on migration and invasion ability of the SCC13 cells. (A) SCC13 cells were allowed to proliferate in a 24-well plate until reaching confluency. A scratch was made on the plate using a pipette tip. The unattached cells were washed off. The cells were then treated with either 0.1% DMSO or two doses of C278 (0.5 µM and 1.0 µM) and incubated for 24 h. The images were captured at the time of drug treatment and after 24 h of incubation through a light microscope. (Scale bar: 200 µM). (B) Percent wound closure was measured using Image J software and plotted in bar graphs. Results are combined from two independent experiments and presented as mean ± SD; n = 4. (C) SCC13 cells were seeded in the invasion chambers and incubated for 4 h. Now the cells were treated either with 0.1% DMSO or two doses of C278 (0.5 µM and 1.0 µM) for 24 h. The cells from the upper surface of the membrane were removed with cotton swabs. The invaded cells, which were in the lower surface of the membrane, were stained with crystal violet. Images of the invaded cells were captured using a light microscope. (D) The average number of cells invaded was counted in each group and plotted in bar graphs. […]
SCC13 cells were seeded on 24-well cell culture plate at a density of 2 × 10^5 cells/well and cultured until cells were confluent. […] Percent change in wound area was measured by Image J software.

The test system of assay [3] is SCC13 cells. The assay can be described thus: Cell invasion (trans-well, Matrigel) assay. It is filed as cell-based, human. The settings on record: 24 h, control group 56.50 ± 4.95%. The procedure:
Figure 4 Effect of C278 on migration and invasion ability of the SCC13 cells. (A) SCC13 cells were allowed to proliferate in a 24-well plate until reaching confluency. A scratch was made on the plate using a pipette tip. The unattached cells were washed off. The cells were then treated with either 0.1% DMSO or two doses of C278 (0.5 µM and 1.0 µM) and incubated for 24 h. The images were captured at the time of drug treatment and after 24 h of incubation through a light microscope. (Scale bar: 200 µM). (B) Percent wound closure was measured using Image J software and plotted in bar graphs. Results are combined from two independent experiments and presented as mean ± SD; n = 4. (C) SCC13 cells were seeded in the invasion chambers and incubated for 4 h. Now the cells were treated either with 0.1% DMSO or two doses of C278 (0.5 µM and 1.0 µM) for 24 h. The cells from the upper surface of the membrane were removed with cotton swabs. The invaded cells, which were in the lower surface of the membrane, were stained with crystal violet. Images of the invaded cells were captured using a light microscope. (D) The average number of cells invaded was counted in each group and plotted in bar graphs. Results are presented as mean ± SD; n = 4. * p < 0.01, ** p < 0.001, *** p < 0.0001. […]

Assay [4] relates to proliferating cell nuclear antigen (PCNA). The assay can be described thus: Western blot, PCNA expression in SCC13 cells. It is filed as cell-based, human. The following applies: 24 h, dose-dependent. The procedure:
Figure 3 Effects of C278 on the viability of SCC13 and HaCaT cells (A) SCC13 cells were treated with increasing concentrations of C278 at 24 h, and the percentage cell viability was estimated. Results are combined from two independent experiments and are presented as mean ± SD; n = 4. (B) HaCaT cells were treated with increasing concentrations of C278 at 24 h, and the percentage cell viability was estimated. Results are combined from two independent experiments and are presented as mean ± SD; n = 4. (C) Expression of PCNA was measured through western blot. The expression of this protein was normalized using β-Actin as a loading control. Figures are representatives of 2 independent experiments. (D) Densiometric analysis of bands was performed and the bar graphs expressing arbitrary units are presented. Error bar represents mean ± SD, n = 4. * p < 0.01, ** p < 0.001, *** p < 0.0001.
(§3) SCC13 cells (1–2 × 10^6) cultured in 6-well culture plate were treated with different concentrations of C278 for 24 h. […] Membranes were then washed three times with wash buffer (TBS containing 0.5% Tween), and then incubated with horseradish peroxidase (HRP)-conjugated secondary Ab and detected by enhanced chemiluminescence (ECL) detection system according to the manufacturer’s instructions.
For orientation: In western blotting, separated proteins are transferred to a membrane and probed.

In the next assay the test system is Bcl-2. As to the kind of experiment: Western blot, Bcl-2 expression in SCC13 cells. The settings on record: SCC13 cells, 0.25, 0.5 and 1 µM, 24 h. It is filed as cell-based, human. The procedure: (§4) Figure 5 Effect of C278 on apoptotic and autophagy related proteins in SCC13 cells. SCC13 cells were treated with 0.1% DMSO and 0.25, 0.5 and 1 µM of C278 for 24 h. The cells were then lysed in cell lysis buffer and protein was estimated. Western blot was performed to estimate the level of expression for human Bcl2, Cleaved-PARP and Beclin-1. The expression of these proteins was normalized using β-Actin as a loading control. Figures are representatives of 2 independent experiments. Bands were analyzed densiometrically and bar graphs expressing arbitrary units are presented adjacent to the western blot. Error bar represents mean ± SD, n = 4. * p < 0.01. ** p < 0.001.
as §3, with “h. Cells were then lysed in cell lysis buffer containing protease inhibitor cocktail and the protein concentrations in the cleared supernatants were estimated using the bicinchoninic acid (BCA) protein assay. The cell lysates were resolved by 10% SDS-PAGE and transferred to nitrocellulose membrane (BioRad, Hercules, CA, USA).” for “h.”

The subject of another assay is cleaved-PARP. The assay can be described thus: Western blot, cleaved-PARP in SCC13 cells. It is filed as cell-based, human. The settings on record: SCC13 cells, 0.25, 0.5 and 1 µM, 24 h. How it is done:
as §4
as §3, with “h. Cells were then lysed in cell lysis buffer containing protease inhibitor cocktail and the protein concentrations in the cleared supernatants were estimated using the bicinchoninic acid (BCA) protein assay. The cell lysates were resolved by 10% SDS-PAGE and transferred to nitrocellulose membrane (BioRad, Hercules, CA, USA).” for “h.”

The subject of a further assay is beclin-1. The assay can be described thus: Western blot, beclin-1 expression in SCC13 cells. It is filed as cell-based, human. The settings on record: SCC13 cells, 0.25, 0.5 and 1 µM, 24 h. The procedure: as §4
as §3, with “h. Cells were then lysed in cell lysis buffer containing protease inhibitor cocktail and the protein concentrations in the cleared supernatants were estimated using the bicinchoninic acid (BCA) protein assay. The cell lysates were resolved by 10% SDS-PAGE and transferred to nitrocellulose membrane (BioRad, Hercules, CA, USA).” for “h.”

For `O=C1C(NCc2cccs2)=CC2=NCCc3c[nH]c1c32` [Compound C278], the IC50 in the assay with SCC13 cells [1] amounted to 500 ± 110 nM; in the assay on HaCaT cells, 1150 ± 210 nM. The IC90 in the assay with SCC13 cells [1] is 900 ± 210 nM; in the assay with HaCaT cells, 2070 ± 370 nM. Further, the “selectivity for killing SCC13 cells compared to HaCaT cells” value in the assay on SCC13 cells [1] (SCC13 vs HaCaT) is on record as “two-fold”. In addition, the Percent wound closure in the assay with SCC13 cells [2] (0.5 μM) was 69.06 ± 2.91%; in the assay with SCC13 cells [2] (1.0 μM), 39.53 ± 2.17%. The “number of invasive cells” value with SCC13 cells [3] (0.5 μM) amounted to 32.00 ± 4.24%; in the assay on SCC13 cells [3] (1.0 μM), 19.50 ± 4.95%. In addition, the “expression of PCNA” value in assay [4] is listed as “downregulation”. The “expression of Bcl-2 protein” value with Bcl-2 is “significantly downregulated”. Also, the “production of cleaved-PARP” value with cleaved-PARP is on record as “increased in a dose-dependent manner”. In the assay with beclin-1, the “expression of beclin-1” value is recorded as “increased in a dose-dependent manner”.
`Cc1ccc(S(=O)(=O)n2cc3c4c2C(=O)C(NCc2ccco2)=CC4=NCC3)cc1` [Compound C45]: the IC50 amounted to 2580 ± 230 nM with SCC13 cells [1] and 5240 ± 80 nM in the assay with HaCaT cells. Moreover, the values for the IC90 with SCC13 cells [1] and in the assay on HaCaT cells were 4650 ± 420 nM and 9430 ± 150 nM, respectively.
Take `Cc1ccc(S(=O)(=O)n2cc3c4c2C(=O)C(NCCc2ccc5c(c2)OCO5)=CC4=NCC3)cc1` [Compound C15]: in the assay with SCC13 cells [1], the IC50 amounted to 5310 ± 190 nM and the IC90 came to 9560 ± 350 nM. In the assay with HaCaT cells, the IC50 amounted to 730 ± 90 nM and the IC90 came to 1320 ± 160 nM.
In the case of `O=C1C(NCCc2ccc3c(c2)OCO3)=CC2=NCCc3c[nH]c1c32` [Compound C238], in the assay on SCC13 cells [1], the IC50 stood at 820 ± 20 nM and the IC90 was 1480 ± 40 nM. Further, in the assay on HaCaT cells, the IC50 stood at 2350 ± 210 nM and the IC90 came to 4230 ± 360 nM.
Regarding `Cc1ccc(S(=O)(=O)n2cc3c4c2C(=O)C(NCc2ccccc2)=CC4=NCC3)cc1` [Compound C11], in the assay on SCC13 cells [1], the IC50 is 510 ± 30 nM and the IC90 was determined as 920 ± 60 nM. Further, in the assay on HaCaT cells, the IC50 is 480 ± 10 nM and the IC90 was 870 ± 30 nM.

In general, IC50 refers to the concentration at which inhibition is half-maximal. For orientation: IC90 means the concentration needed for an effect of 90%.

(Values after paper PMC6722685, “A Novel Marine Natural Product Derived Pyrroloiminoquinone with Potent Activity against Skin Cancer Cells” (Marine Drugs, 2019).)
